Measured values from PMC11849186 (BMC Biology, 2025).

Experiments:
[1] = molecular target: T1, Pheromone binding protein 5 (Pbp5) (Bactrocera dorsalis, UniProt A0A6I9V7R6); test: direct fluorescence binding assay
T1 sequence (A0A6I9V7R6 21-147): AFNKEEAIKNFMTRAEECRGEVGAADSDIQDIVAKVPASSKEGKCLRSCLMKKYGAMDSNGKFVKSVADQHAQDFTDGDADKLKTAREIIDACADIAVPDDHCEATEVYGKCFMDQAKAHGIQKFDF

[2] = molecular target: T2, Pheromone binding protein 5 (Pbp5) mutant (Bactrocera dorsalis, UniProt A0A6I9V7R6, F147A/F31A/F95A/I28A); test: direct fluorescence binding assay
T2 sequence (A0A6I9V7R6 21-147 I28A/F31A/F95A/F147A): T1 sequence (A0A6I9V7R6 21-147)

[3] = molecular target: T1, Pheromone binding protein 5 (Pbp5); test: competitive fluorescence displacement of 1-NPN

| Ki [3] | Structure (SMILES) | Kd [1] | Kd [2] |
| --- | --- | --- | --- |
| – | c1ccc(Nc2cccc3ccccc23)cc1 [1-NPN, N-phenyl-1-naphthylamine] | 10.6 µM | 33.9 µM |
| 0.224 µM | Cc1cnc(C)c(C)n1 [TMP, trimethylpyrazine] | – | – |
| 0.21 µM | Cc1nc(C)c(C)nc1C [TTMP, tetramethylpyrazine] | – | – |
